Experiments:
CD1 mice = experiment: Hargreaves test under CFA-induced hyperalgesic conditions in CD1 mice; assay type: in vivo; conditions: for response time for paw withdrawal compared to vehicle: 0.1 mg/kg, CD1 mice, CFA-induced hyperalgesic conditions
Description: Under CFA-induced hyperalgesic conditions, the maximum possible effect, % MPE=(response−baseline)/(cut-off time−baseline), was measured for the application of compound 1 alone (0.05 mg/kg, blue, n=12; 0.01 mg/kg, orange, n=4), morphine alone (0.1 mg/kg, green, n=8), and compound 1 with morphine at three different dosage combinations: 0.05 mg/kg compound 1 with 0.1 mg/kg morphine (light blue, n=6), 0.01 mg/kg compound 1 with 0.1 mg/kg morphine (pink, n=10), and 0.01 mg/kg compound 1 with 0.01 mg/kg morphine (red, n=4). […] Error bars designate the standard error of the mean.
0.05 mg/kg compound 1 was tested for tolerance in CFA-treated mice (red). Under CFA-induced hyperalgesic conditions (24 hours post-application of CFA), 0.05 mg/kg compound 1 was administered to CD1 mice and responses to the Hargreaves test were measured immediately after the initial injection (application time=0) and again after a repeated dose given 1.5 hours (FIG. 7A) or 24 hours (FIG. 7B) after the effects of the first dose wore off. The black circles represent the responses of naïve mice (i.e., no administration of compound 1 or CFA), and the red circles represent the responses of mice receiving compound 1 under CFA-induced hyperalgesic conditions. […] Error bars designate the standard error of the mean (n=4).
Responses of CD1 mice to the Hargreaves test were assessed after application of 0.1 mg/kg of the indicated compounds (black) or vehicle (white) under CFA-induced hyperalgesic conditions as shown in FIGS. 8A-8H. The assessed compounds were compounds 1 (8A), 2 (8B), 3 (8C), 4 (8D), 5 (8E), 6 (8F), 7 (8G), and 8 (8H). […] Error bars designate the standard error of the mean (n≥4).
Dose response curves from the Hargreaves test in mice with a CFA-inflamed left hind paw at 1.5 and 2 hr after intraperitoneal injection of compound 1. Percent Maximum Possible Effect (% MPE) was calculated from paw withdrawal latencies.
Tolerance to compound 1 (MJPY1) and compound 3 (MJPY2) was measured by repeated dosing in the Hargreaves Test. […] Mice (n=6/group) received repeated i.p. injections of vehicle or 0.1 mg/kg compound 1 (MJPY1) or compound 3 (MJPY2) once a day for 5 days. CFA inflammation was induced on day 4, and PWL was measured 0.5 hr before and every 10 min after treatment on day 5. Data were binned to 30-min blocks (mean±SEM).

mice = experiment: Two-plate thermal preference test (30° C. vs 55° C.); assay type: in vivo; conditions: for percentage of inactive time on the hot plate (55° C.): CD1 mice, CFA, vs naïve
Description: Responses to the two-plate thermal preference test were assessed under naïve conditions and 1 hour after administration of 0.2 mg/kg compound 1, 0.1 mg/kg morphine, or 0.2 mg/kg compound 1+0.1 mg/kg morphine. Unrestrained mice were exposed to plates set to normal and hot temperatures (30° C. and 55° C., respectively). Temperature preference was measured by percentage time spent on the hot plate (55° C.) over the course of 4 minutes, where 50% indicates no preference between the two temperatures. […] Error bars designate the standard error of the mean (n≥5).
Unrestrained mice were exposed to plates set to normal and hot temperatures (30° C. and 55° C., respectively) for 10 minutes. […] Error bars designate the standard error of the mean (n=4).
The percent inactivity on the 55° C. plate (mean±SEM) is a measure of heat tolerance. Significance was assessed by one-way ANOVA with LSD post-hoc test.

[1] = 0.1 mg/kg i.p., 1 hour after injection
[2] = 0.1 mg/kg i.p., 48 hours after injection

Compound | response time for paw withdrawal compared to vehicle (CD1 mice) | further results
O=C(NCc1ccc(C(=O)N2CCCCC2)cc1)c1ccc2c3c(cccc13)CC2 [compound 2, N-{[4-(piperidine-1-carbonyl)phenyl]methyl}-1,2-dihydroacenaphthylene-5-carboxamide] | increase in the response time | –
NC(=O)CNC(=O)c1ccc(CNC(=O)c2ccc3c4c(cccc24)CC3)cc1 [compound 3, N-({4-[(carbamoylmethyl)-carbamoyl]phenyl}methyl)-1,2-dihydroacenaphthylene-5-carboxamide] | increase in the response time | tolerance after repeated dosing (PWL) (CD1 mice; 0.1 mg/kg i.p. once a day for 5 days, CFA on day 4): negligible tolerance; percentage of inactive time on the hot plate (55° C.) (mice; [1]): significantly increased; percentage of inactive time on the hot plate (55° C.) (mice; [2]): significantly increased; analgesic action compared with morphine (percent inactivity on the 55° C. plate) (mice; 0.1 mg/kg i.p., male CD1 mice, 24 hr after CFA, 1 hr after treatment, same dose): better than morphine
CN(C)C(=O)c1cccc(CNC(=O)c2ccc3c4c(cccc24)CC3)c1 [compound 4, N-[[3-(dimethylcarbamoyl)-phenyl]methyl]-1,2-dihydroacenaphthylene-5-carboxamide] | increase in the response time | percentage of inactive time on the hot plate (55° C.) (mice; [1]): increase in the inactive time; percentage of inactive time on the hot plate (55° C.) (mice; [2]): no effect
NC(=O)c1ccc(CNC(=O)c2ccc3c4c(cccc24)CC3)cc1 [compound 5, N-[(4-carbamoylphenyl)-methyl]-1,2-dihydroacenaphthylene-5-carboxamide] | increase in the response time | –
O=C1CN(C(=O)c2ccc(CNC(=O)c3ccc4c5c(cccc35)CC4)cc2)CCN1 [compound 6, N-{[4-(3-oxopiperazine-1-carbonyl)phenyl]methyl}-1,2-dihydroacenaphthylene-5-carboxamide] | increase in the response time | –
CCN(Cc1ccc(C(=O)N(C)C)cc1)C(=O)c1ccc2c3c(cccc13)CC2 [compound 7, N-{[4-(dimethylcarbamoyl)-phenyl]methyl}-N-ethyl-1,2-dihydroacenaphthylene-5-carboxamide] | increase in the response time | –
CCNC(=O)c1ccc(CNC(=O)c2ccc3c4c(cccc24)CC3)cc1 [compound 8, N-{[4-(ethylcarbamoyl)-phenyl]methyl}-1,2-dihydroacenaphthylene-5-carboxamide] | increase in the response time | –
CN1CC[C@]23c4c5ccc(O)c4O[C@H]2[C@@H](O)C=C[C@H]3[C@H]1C5 [morphine, reference compound] | – | percentage time spent on the hot plate (55° C.) compared to naïve mice (mice; normal nociception, 1 hour after 0.2 mg/kg compound 1, 0.1 mg/kg morphine, or both, 4 minutes): no significant analgesic response
